Like-named read-outs stand apart in the source and are kept apart here. Marks after values point to notes of the source that are not given here.
Legend:
[1] = target: T1, Human erythrocyte AChE (Homo sapiens, UniProt P22303); assay: biochemical; type: biochemical
Procedure: (§1) Human erythrocyte AChE and equine serum BChE were purchased from Milamed (Perm, Russia). Porcine liver CES, substrates, and reference compounds were from Sigma-Aldrich (St. Louis, MO, USA). The activity of enzymes was measured spectrophotometrically, as described in detail in [72] using ATCh iodide, BTCh iodide, and 4-NPA as substrates for AChE, BChE, and CES, respectively. Experimental conditions: K,Na—phosphate buffer (100 mM), 25 °C, pH 7.5 for AChE and BChE and pH 8.0 for CES assay. Measurements were carried out on a FLUOStar Optima microplate reader (BMG Labtech, Ortenberg, Germany).
(§2) Test compounds were dissolved in DMSO; the final concentration of solvent in the incubation mixture was 2% (v/v).

[2] = target: T2, equine serum BChE (Equus caballus, UniProt P81908); assay: biochemical; type: biochemical; conditions: for BChE activity relative to tacrine (times more active): vs tacrine
T2 sequence (P81908 whole entry): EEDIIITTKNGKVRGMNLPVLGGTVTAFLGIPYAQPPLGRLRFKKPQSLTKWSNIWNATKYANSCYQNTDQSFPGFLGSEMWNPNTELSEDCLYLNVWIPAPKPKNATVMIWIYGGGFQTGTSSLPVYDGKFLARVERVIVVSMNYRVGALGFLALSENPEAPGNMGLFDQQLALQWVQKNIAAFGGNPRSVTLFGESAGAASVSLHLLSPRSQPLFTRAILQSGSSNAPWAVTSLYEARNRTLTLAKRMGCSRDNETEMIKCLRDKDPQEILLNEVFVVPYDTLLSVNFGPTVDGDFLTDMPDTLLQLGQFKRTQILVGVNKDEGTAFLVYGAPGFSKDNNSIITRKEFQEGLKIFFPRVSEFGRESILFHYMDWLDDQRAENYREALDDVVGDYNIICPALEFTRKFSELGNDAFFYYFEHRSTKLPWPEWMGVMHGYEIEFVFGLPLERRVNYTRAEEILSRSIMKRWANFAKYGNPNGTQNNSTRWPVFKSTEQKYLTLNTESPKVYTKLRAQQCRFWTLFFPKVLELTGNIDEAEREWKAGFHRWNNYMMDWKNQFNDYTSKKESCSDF
Procedure: as §1, §2

[3] = system: Porcine liver CES; assay: CES inhibition, spectrophotometric, 4-NPA substrate; type: biochemical
Procedure: as §1
Test compounds were dissolved in DMSO; the final concentration of solvent in the incubation mixture was 2% (v/v). […]

[4] = target: T3, peripheral anionic site of Electrophorus electricus AChE (EeAChE) (Electrophorus electricus, UniProt O42275); type: binding
T3 sequence (O42275 24-633): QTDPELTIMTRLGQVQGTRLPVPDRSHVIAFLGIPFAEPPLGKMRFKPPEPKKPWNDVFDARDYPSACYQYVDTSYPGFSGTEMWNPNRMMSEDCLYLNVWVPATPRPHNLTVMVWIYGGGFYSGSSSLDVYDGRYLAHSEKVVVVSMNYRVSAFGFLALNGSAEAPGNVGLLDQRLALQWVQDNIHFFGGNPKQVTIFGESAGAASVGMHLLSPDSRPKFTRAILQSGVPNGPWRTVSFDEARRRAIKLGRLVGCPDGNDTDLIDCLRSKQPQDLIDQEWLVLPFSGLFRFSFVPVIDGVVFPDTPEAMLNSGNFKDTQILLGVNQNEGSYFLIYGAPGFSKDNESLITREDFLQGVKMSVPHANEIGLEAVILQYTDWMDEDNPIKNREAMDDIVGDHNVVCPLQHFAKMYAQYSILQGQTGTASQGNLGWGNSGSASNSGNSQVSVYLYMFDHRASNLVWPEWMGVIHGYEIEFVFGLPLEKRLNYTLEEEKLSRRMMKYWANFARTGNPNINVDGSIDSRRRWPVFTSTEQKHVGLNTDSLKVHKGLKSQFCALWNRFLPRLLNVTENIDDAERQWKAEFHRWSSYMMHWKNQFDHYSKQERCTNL

[5] = target: Aβ42 (Homo sapiens, UniProt P05067); assay: Inhibition of Aβ42 self-aggregation, thioflavin T fluorescence; type: biochemical; conditions: Aβ42 50 µM, compound 100 µM; read-out: Inhibition of Aβ42 Self-Aggregation
Chain of Aβ42 (P05067 672-713): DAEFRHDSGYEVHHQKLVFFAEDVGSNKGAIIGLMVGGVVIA

[6] = ABTS radical cation scavenging assay; conditions: for ABTS•+-Scavenging Activity TEAC: Trolox equivalents
[7] = Ferric-reducing antioxidant power (FRAP) assay; conditions: Trolox equivalents
[8] = system: free radicals in mouse brain homogenate (TBHP-initiated); type: biochemical; conditions: read-out: Radical Scavenging Capacity, Luminol Chemiluminescence Assay IC50
[9] = system: spontaneous lipid peroxidation in mouse brain homogenate; type: biochemical; conditions: read-out: Inhibition of Spontaneous Lipid Peroxidation in Mouse Brain Homogenate, TBARS Assay IC50
[10] = target: T1, Human erythrocyte AChE; set-up: method as in PMID 33322783; conditions: cited from earlier work
[11] = target: T2, equine serum BChE; set-up: method as in PMID 33322783; conditions: cited from earlier work
[12] = system: Porcine liver CES; set-up: method as in PMID 33322783; conditions: cited from earlier work
[13] = target: T3, peripheral anionic site of Electrophorus electricus AChE (EeAChE); set-up: method as in PMID 33322783; conditions: compound 20 μM; cited from earlier work
[14] = set-up: method as in PMID 33322783; conditions: Trolox equivalents; cited from earlier work
[15] = set-up: method as in PMID 33322783; conditions: Trolox equivalents; cited from earlier work; remark: listed apart in the source
[16] = target: T4, AChE (Homo sapiens, UniProt P22303); assay: biochemical; type: biochemical; conditions: for Ki: read-out: AChE Ki (competitive inhibition constant)
T4 sequence (P22303 other isoform, or with tags, fused parts or gaps): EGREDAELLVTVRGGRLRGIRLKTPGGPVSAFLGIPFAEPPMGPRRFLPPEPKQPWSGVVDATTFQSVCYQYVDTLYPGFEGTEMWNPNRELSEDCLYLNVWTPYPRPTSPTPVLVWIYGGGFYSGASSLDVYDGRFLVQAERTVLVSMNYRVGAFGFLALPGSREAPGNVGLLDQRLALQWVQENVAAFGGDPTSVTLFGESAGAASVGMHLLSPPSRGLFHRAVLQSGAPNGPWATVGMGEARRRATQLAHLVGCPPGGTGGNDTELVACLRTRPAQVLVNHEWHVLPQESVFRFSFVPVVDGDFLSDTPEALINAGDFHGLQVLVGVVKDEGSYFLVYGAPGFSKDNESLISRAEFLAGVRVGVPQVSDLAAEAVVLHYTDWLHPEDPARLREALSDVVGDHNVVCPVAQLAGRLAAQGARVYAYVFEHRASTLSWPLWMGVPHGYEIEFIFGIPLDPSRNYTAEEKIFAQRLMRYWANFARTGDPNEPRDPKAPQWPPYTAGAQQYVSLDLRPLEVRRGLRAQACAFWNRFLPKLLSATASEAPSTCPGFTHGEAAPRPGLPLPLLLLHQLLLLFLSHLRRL
Procedure: (§3) A mechanism of AChE and BChE inhibition was assessed by a detailed analysis of enzyme kinetics with three increasing concentrations of inhibitor and six substrate concentrations, as described in detail in [72].

[17] = target: T5, eqBChE (Equus caballus, UniProt P81908); assay: biochemical; type: biochemical; conditions: for Ki: read-out: eqBChE Ki (competitive inhibition constant)
T5 sequence (P81908 whole entry): as the sequence (P81908 whole entry) above
Procedure: as §3

[18] = target: T4, AChE; set-up: method as in PMID 33322783; conditions: cited from earlier work
[19] = target: T5, eqBChE; set-up: method as in PMID 33322783; conditions: cited from earlier work

T1 sequence (P22303 other isoform, or with tags, fused parts or gaps): as the sequence (P22303 other isoform, or with tags, fused parts or gaps) above

| SMILES | IC50 [1] | IC50 [2] | CES % inhibition at 20 μM [3] | Propidium Displacement [4] | inhibition at 100 µM [5] | IC50 [6] | ABTS•+-Scavenging Activity TEAC [6] | Ferric-Reducing Antioxidant Power TE [7] | IC50 [8] | IC50 [9] | IC50 [10] | IC50 [11] | CES % inhibition at 20 μM [12] | Propidium Displacement [13] | ABTS•+-Scavenging Activity TEAC [14] | Ferric-Reducing Antioxidant Power TE [15] | AChE αKi (non-competitive inhibition constant) [16] | Ki [16] | eqBChE αKi (non-competitive inhibition constant) [17] | Ki [17] | further results |
| --- | --- | --- | --- | --- | --- | --- | --- | --- | --- | --- | --- | --- | --- | --- | --- | --- | --- | --- | --- | --- | --- |
| CC(C)(C)c1cc(C=NCCCCCCCCNc2c3c(nc4ccccc24)CCCC3)cc(C(C)(C)C)c1O [14d, 2,6-Di-tert-butyl-4-{[8-(1,2,3,4-tetrahydro-acridin-9-ylamino)-octylimino]-methyl}-phenol] | 0.0171 ± 0.0016 µM | 0.00939 ± 0.00042 µM | 28.8 ± 2.0% | 14.8 ± 1.0% | 70.4 ± 5.6% | 18.2 ± 0.7 µM | 1.06 ± 0.03 | 0.70 ± 0.03 | 1.9 ± 0.1 µM | 20.4 ± 2.3 µM | – | – | – | – | – | – | – | – | – | – | AChE potency relative to compound 14a (times more potent) ([1]; vs 14a): 350 times; AChE activity relative to tacrine (times more active) ([1]; vs tacrine): ~ 40 times |
| CC(C)(C)c1cc(/C=N/CCNc2c3c(nc4ccccc24)CCCC3)cc(C(C)(C)C)c1O [14a] | – | – | – | – | – | 17.8 ± 1.5 µM | – | – | – | – | 5.98 ± 0.131 µM | 1.61 ± 0.04 µM | 28.6 ± 1.6% ^a,*** | 18.2 ± 1.6 ^a,*^,§ % | 1.13 ± 0.05 ^a | 0.58 ± 0.03 ^a,*** | – | – | – | – | – |
| CC(C)(C)c1cc(CNCCNc2c3c(nc4ccccc24)CCC3)cc(C(C)(C)C)c1O [16a] | – | – | – | – | – | 14.6 ± 0.8 µM | – | 0.57 ± 0.02 | – | – | – | – | 19.6 ± 1.3% ^a,*** | 16.4 ± 1.4 ^a % | 1.39 ± 0.05 ^a,*** | – | – | – | – | – | – |
| CC(C)(C)c1cc(C=NCCCCCCCCNc2c3c(nc4ccccc24)CCCCC3)cc(C(C)(C)C)c1O [15d, 2,6-Di-tert-butyl-4-{[8-(7,8,9,10-tetrahydro-6H-cyclohepta[b]quinolin-11-ylamino)-octylimino]-methyl}-phenol] | 0.026 ± 0.0024 µM | 0.00624 ± 0.00054 µM | 25.5 ± 1.1% | 14.9 ± 1.2% | 63.5 ± 5% | 19.6 ± 0.8 µM | 1.00 ± 0.03 | 0.73 ± 0.02 | 3 ± 0.1 µM | 29.1 ± 2.4 µM | – | – | – | – | – | – | 31.4 ± 2.4 nM | 0.0199 ± 0.0008 µM | 5.68 ± 0.06 nM | 0.00491 ± 0.00042 µM | BChE activity relative to tacrine (times more active) [2]: 5 times; type of AChE inhibition [16]: mixed type; type of BChE inhibition [17]: mixed type |
| CC(C)(C)c1cc(/C=N/CCNc2c3c(nc4ccccc24)CCC3)cc(C(C)(C)C)c1O [13a] | – | – | – | – | – | 22.3 ± 1.5 µM | – | – | – | – | 4.86 ± 0.01 µM | 1.92 ± 0.11 µM | 26.1 ± 0.7% ^a,*** | 18.1 ± 1.6 ^a,*^,§ % | 0.92 ± 0.03 ^a | 0.51 ± 0.03 ^a,*** | – | – | – | – | – |
| CC(C)(C)c1cc(CNCCCCCCNc2c3c(nc4ccccc24)CCCCC3)cc(C(C)(C)C)c1O [18c, 2,6-Di-tert-butyl-4-{[6-(7,8,9,10-tetrahydro-6H-cyclohepta[b]quinolin-11-ylamino)-hexylamino]-methyl}-phenol] | 0.103 ± 0.004 µM | 0.0149 ± 0.0003 µM | 16.8 ± 0.5% | 12.5 ± 0.9% | 47.8 ± 3.8% | 21.6 ± 1.1 µM | 1.00 ± 0.03 | 0.43 ± 0.02 | 14.6 ± 0.8 µM | 24.6 ± 2.8 µM | – | – | – | – | – | – | 101 ± 5 nM | 0.0831 ± 0.0014 µM | 17.3 ± 0.2 nM | 0.00783 ± 0.00076 µM | – |
| CC(C)(C)c1cc(CNCCCCCCCCNc2c3c(nc4ccccc24)CCCCC3)cc(C(C)(C)C)c1O [18d, 2,6-Di-tert-butyl-4-{[8-(7,8,9,10-tetrahydro-6H-cyclohepta[b]quinolin-11-ylamino)-octylamino]-methyl}-phenol] | 0.0308 ± 0.0002 µM | 0.00596 ± 0.00058 µM | 13.9 ± 1.2% | 12.3 ± 0.8% | 59.6 ± 4.7% | 15.8 ± 0.6 µM | – | 0.45 ± 0.01 | 9.2 ± 0.6 µM | 20.2 ± 3.3 µM | – | – | – | – | – | – | 25.1 ± 0.2 nM | 0.013 ± 0.001 µM | 6.06 ± 0.41 nM | 0.00425 ± 0.00033 µM | BChE activity relative to tacrine (times more active) [2]: 5 times; time to reach the activity level of Trolox in ABTS radical scavenging ([6]; compound at 20 μM (IC50 of Trolox)): less than 1 min |
| CC(C)(C)c1cc(/C=N/CCNc2c3c(nc4ccccc24)CCCCC3)cc(C(C)(C)C)c1O [15a] | – | – | – | – | – | 18.8 ± 0.8 µM | – | – | – | – | 4.03 ± 0.03 µM | 0.419 ± 0.04 µM | 30.1 ± 2.5% ^a,*** | 16.3 ± 1.3 ^a % | 1.11 ± 0.04 ^a | 0.52 ± 0.01 ^a,*** | – | – | – | – | AChE αKi (non-competitive inhibition constant) [18]: 4300 ± 20 ^b,* nM; Ki ([18]; read-out: AChE Ki (competitive inhibition constant)): 1.58 ± 0.1 µM; eqBChE αKi (non-competitive inhibition constant) [19]: 437 ± 10 ^b,*** nM; Ki ([19]; read-out: eqBChE Ki (competitive inhibition constant)): 0.164 ± 0.005 µM |
| CC(C)(C)c1cc(CNCCNc2c3c(nc4ccccc24)CCCCC3)cc(C(C)(C)C)c1O [18a] | – | – | – | – | – | 15.3 ± 0.6 µM | – | 0.44 ± 0.06 | – | – | – | – | 26.0 ± 3.9% ^a,* | 13.6 ± 1.2 ^a % | 1.35 ± 0.06 ^a,*** | – | – | – | – | – | – |
| CC(C)(C)c1cc(C=NCCCCCCNc2c3c(nc4ccccc24)CCCCC3)cc(C(C)(C)C)c1O [15c, 2,6-Di-tert-butyl-4-{[6-(7,8,9,10-tetrahydro-6H-cyclohepta[b]quinolin-11-ylamino)-hexylimino]-methyl}-phenol] | 0.151 ± 0.013 µM | 0.0106 ± 0.0002 µM | 25.4 ± 0.9% | 16.8 ± 1.2% | 43.4 ± 3.9% | 22.3 ± 1.1 µM | 0.90 ± 0.03 | 0.52 ± 0.02 | 2.3 ± 0.3 µM | 27.6 ± 1.7 µM | – | – | – | – | – | – | 108 ± 3 nM | 0.0698 ± 0.005 µM | 9.34 ± 0.62 nM | 0.00513 ± 0.0001 µM | – |
